From patent publication US10376488B2, “Use of flavonoids in manufacturing compositions for wound healing” (ONENESS BIOTECH CO., Ltd, priority 2014, dated 2019)
Marks after values point to notes of the source that are not given here.

System: diabetic wound
Experiment: Diabetic wound healing test in STZ-induced hyperglycemic rats
Type: in vivo
Set-up: CT50: wound half-closure time: unit not given beside the values
Details: 0.5% ointment applied to wounds, mean±SEM, n = 6
Procedure: After rats' body weight reach 300 g, the induction of hyperglycemia was carried out with streptozotocin (STZ) (65 mg/kg, ip administration). […] Hyperglycemic animals with a body weight less than 300 g were excluded, and random grouping was performed. Animals were anesthetized with pentobarbital and then their backs were shaved and disinfected. Three pieces of animal skin (full thickness) were harvested from the back of the animals at points 4, 6 and 8 cm from the midpoint of the two scapula with an 1- cm-diameter drilling round knife.
Wounds of each animal were applied with testing agents. New skins were harvested for examination after the end of experiment.
Analyzing the areas of the three wounds on the back of each rat by image pro with the area on day zero as the original wound area. The original wound area is subtracted by the wound area at each time point and then divided by the original wound area to serve as the percentage of wound healing. The average value of the three percentages of wound healing of each rat is considered as the respective would healing extent of each rat. The number of rats was 6 for each group of each test. Data is expressed as mean±SEM. P value is calculated for the test results by t-test against control group, where P<0.05 indicates significant differences, denoted *.
A 0.5% cirsimaritin composition was prepared in an ointment form, and was applied to the rats as treated above. The comparison between the percentages of wound healing at 9, 11, 13, and 15 days after administration, and the untreated control group is shown below. There were significant differences for each group.

COc1cc2oc(-c3ccc(O)cc3)cc(=O)c2c(O)c1OC [cirsimaritin]
CT50: wound half-closure time: 10.7 ± 0.4* | percentage of wound healing (9 days after administration): 37.2 ± 3.9* % | percentage of wound healing (11 days after administration): 51.5 ± 3.1* % | percentage of wound healing (13 days after administration): 70.6 ± 3.5* % | percentage of wound healing (15 days after administration): 83.3 ± 3.2* %
